Measurements published in patent US20040014637A1, “Mechanism for the inactivation of insulin receptor and uses in the treatment of type II diabetes” (McGill University, priority 1998, published 2004).
Blank lines part the entries; values can stand above or below the compound they belong to.

Experiments:
[1] = molecular target: T1, insulin receptor kinase (IRK) (Rattus norvegicus, UniProt P15127); experiment: Insulin receptor kinase (IRK) exogenous tyrosine kinase activity, Poly (Glu:Tyr) (4:1) substrate, WGA-purified IRK from preincubated cell fractions; format: biochemical
T1 construct: from tissue; host or cells: rat liver; endosome (EN) and plasma membrane (PM) fractions
T1 sequence (P15127 27-759 limits assumed): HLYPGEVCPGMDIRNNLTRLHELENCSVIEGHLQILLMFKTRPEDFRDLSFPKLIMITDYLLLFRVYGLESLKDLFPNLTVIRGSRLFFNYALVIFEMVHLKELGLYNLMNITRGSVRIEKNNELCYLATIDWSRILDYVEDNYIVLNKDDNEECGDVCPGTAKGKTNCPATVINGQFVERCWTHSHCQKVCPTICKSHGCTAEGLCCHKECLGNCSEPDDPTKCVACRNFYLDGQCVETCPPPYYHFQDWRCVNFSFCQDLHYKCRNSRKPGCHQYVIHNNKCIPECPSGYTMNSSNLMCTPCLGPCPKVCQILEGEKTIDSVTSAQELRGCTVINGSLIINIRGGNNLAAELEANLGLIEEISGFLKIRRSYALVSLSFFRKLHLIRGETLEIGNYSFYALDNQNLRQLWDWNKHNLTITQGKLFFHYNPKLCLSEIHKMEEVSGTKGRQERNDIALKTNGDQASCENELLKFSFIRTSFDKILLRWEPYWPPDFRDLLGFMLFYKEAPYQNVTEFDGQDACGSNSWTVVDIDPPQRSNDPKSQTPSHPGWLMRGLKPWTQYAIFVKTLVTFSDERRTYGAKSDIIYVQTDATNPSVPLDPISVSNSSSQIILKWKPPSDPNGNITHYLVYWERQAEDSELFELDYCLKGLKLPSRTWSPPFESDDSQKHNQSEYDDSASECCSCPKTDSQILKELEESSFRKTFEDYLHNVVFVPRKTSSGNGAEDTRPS
T1 sequence (P15127 764-1383 limits assumed): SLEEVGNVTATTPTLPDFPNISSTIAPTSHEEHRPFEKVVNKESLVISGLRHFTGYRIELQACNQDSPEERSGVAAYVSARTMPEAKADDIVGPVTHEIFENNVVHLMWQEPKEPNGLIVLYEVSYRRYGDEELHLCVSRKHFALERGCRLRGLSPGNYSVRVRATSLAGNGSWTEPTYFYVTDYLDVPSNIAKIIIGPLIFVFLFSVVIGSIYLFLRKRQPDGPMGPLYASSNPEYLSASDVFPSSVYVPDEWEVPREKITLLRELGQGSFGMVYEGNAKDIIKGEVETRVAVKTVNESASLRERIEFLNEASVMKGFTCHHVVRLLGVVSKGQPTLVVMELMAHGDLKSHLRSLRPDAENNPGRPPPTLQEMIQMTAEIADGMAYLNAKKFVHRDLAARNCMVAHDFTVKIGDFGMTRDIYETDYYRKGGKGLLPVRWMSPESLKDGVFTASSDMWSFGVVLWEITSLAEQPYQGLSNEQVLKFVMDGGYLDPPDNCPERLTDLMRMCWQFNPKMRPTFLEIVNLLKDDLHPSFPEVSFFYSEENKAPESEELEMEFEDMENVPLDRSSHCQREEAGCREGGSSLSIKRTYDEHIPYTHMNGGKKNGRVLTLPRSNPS

[2] = molecular target: T2, insulin receptor kinase (IRK) β-subunit (Rattus norvegicus, UniProt P15127); experiment: IRK β-subunit phosphotyrosine content (αPY immunoblot of WGA eluates); format: biochemical
T2 construct: from tissue; host or cells: rat liver; endosome (EN) and plasma membrane (PM) fractions
T2 sequence (P15127 27-759 limits assumed): as the sequence (P15127 27-759 limits assumed) above
T2 sequence (P15127 764-1383 limits assumed): as the sequence (P15127 764-1383 limits assumed) above
Procedure: The phosphotyrosine content of endosomal IRs (ENs containing IR) was determined by subjecting lectin column (WGA-Sepharose™)-purified preparations to SDS-PAGE and immunoblotting with α960 and αPY (Faure et al. (1992) J. Biol. Chem. 267, 11215-11221). […] FIG. 1B illustrates the effect of ATP on β subunit phosphotyrosine content. WGA eluates (5 μg protein) were subjected to SDS-PAGE in 7.5% gels followed by transfer of proteins to Immobilon-P membranes. Membranes were probed with αPY or α960 antibodies followed by incubation with ^125I-GAR as second antibody and exposed for autoradiography.

insulin receptor = molecular target: T3, insulin receptor (Rattus norvegicus, UniProt P15127); experiment: 125I-insulin binding after preincubating endosomes (ENs containing IR) with nucleotides; conditions: Table 2; addition 10 mM, 37° C. 15 min; normalized to endosomes without nucleotide
T3 construct: from tissue; host or cells: rat liver; endosome (EN) and plasma membrane (PM) fractions
T3 sequence (P15127 27-759 limits assumed): as the sequence (P15127 27-759 limits assumed) above
T3 sequence (P15127 764-1383 limits assumed): as the sequence (P15127 764-1383 limits assumed) above
Procedure: Rats were anaesthetized with ether and were injected via jugular vein with a dose (per 100 g body weight) of insulin (1.5 μg), or bpV(phen) (0.6 μmol), dissolved in 0.2 ml. phosphate buffered saline (pH 7.4) −0.1% BSA. […] Livers were rapidly excised, placed in ice-cold homogenizing buffer (50 mM HEPES (pH 7.4), 0.25 M sucrose, 1 mM PMSF, 1 MM MgCl2, 1 mM benzamidine) and minced before homogenization. […] These subcellular fractions have been characterized in detail both morphologically and biochemically.
After 10 min at room temperature, the reactions was terminated by spotting 50 μl aliquots on Whatman 3 MM filters.
In the present study we wished to assess whether other processes might be involved in reducing the association of intraendosomal insulin with its receptor. We examined the effect of incubating intact ENs containing IR with increasing concentrations of ATP on subsequently measured insulin and hGH binding in both solubilized and WGA-purified receptors.

[3] = test system: intraendosomal insulin degradation; conditions: cited from earlier work
[4] = treatment of Type II diabetic patients; cited from earlier work

- Effect on suppression of IRK activity by 5 mM ATP (FIG. 6A) ([1]; coincubation of ENs with 0.1 mM bpV(phen)): did not prevent
- IRK activity of ENs isolated from pretreated rats ([1]; rats given bpV(phen) 0.6 μmol/100 g body weight i.v., ENs at 15 min): augmented IRK activity
- Effect on reduction in β-subunit tyrosine phosphorylation by 5 mM ATP (FIG. 6B) ([2]; bpV(phen) 0.1 mM in vitro or rats pretreated): did not influence the reduction
SMILES: O.O.O.OO.OO.[K+].[OH-].[V].c1cnc2c(c1)ccc1cccnc12 [bpV(phen)]

- 125I-Insulin specific binding (%), Solubilized endosomes (insulin receptor): 94.5 ± 4.1%
- 125I-Insulin specific binding (%), WGA-purified endosomes (insulin receptor): 105.9 ± 3.3%
SMILES: Nc1ncnc2c1ncn2[C@@H]1O[C@H](CO)[C@@H](O)[C@H]1O [Adenosine, adenosine]

SMILES: CCN(CC)CCCC(C)Nc1ccnc2cc(Cl)ccc12 (stereo not shown) [chloroquine]
- Intraendosomal insulin degradation [3]: inhibits intraendosomal insulin degradation
- Glucose metabolism in Type II diabetic patients [4]: improve glucose metabolism

SMILES: CO/C1=C\C(C)=C\[C@@H](C)[C@@H](O)[C@@H](C)C/C(C)=C/C=C/[C@H](OC)[C@@H]([C@@H](C)[C@@H](O)[C@H](C)[C@@]2(O)C[C@@H](O)[C@H](C)[C@@H](C(C)C)O2)OC1=O [Bafilomycin A1]
- Effect on ability of ATP to reduce IRK activation (FIG. 4A) ([1]; 1 μM Bafilomycin A1 preincubation 30 min 37° C., then 5 and 10 mM ATP 15 min): marked attenuation
- Effect on inhibition of IRK tyrosine phosphorylation and activity by 5 mM ATP ([1]; ENs containing IR incubated with 5 mM ATP): completely reversed
- IRK activity in ENs after preincubation, before ATP additions ([1]; preincubation with 1 μM Bafilomycin A1, 30 min 37° C. (without: 1.3)): 1.4 pmol/10 min/10 fmol insulin binding
- Level of IRK tyrosine phosphorylation at 5 mM ATP (FIG. 4B) ([2]; in the presence of Bafilomycin (1 μM), 5 mM ATP): comparable to that observed at 1 mM ATP

SMILES: Nc1ncnc2c1ncn2[C@@H]1O[C@H](COP(=O)(O)OP(=O)(O)CP(=O)(O)O)[C@@H](O)[C@H]1O [AMP—P—C—P]
- Effect on level of IRK activity (FIG. 2) ([1]; 5 mM AMP-P-C-P, in the presence or absence of 1 mM ATP): no effect
- 125I-Insulin specific binding (%), Solubilized endosomes (insulin receptor): 109.1 ± 0.9%
- 125I-Insulin specific binding (%), WGA-purified endosomes (insulin receptor): 95.1 ± 2.0%

SMILES: O=P([O-])([O-])OP(=O)([O-])[O-].[Na+].[Na+].[Na+].[Na+] [NaPiPi, sodium pyrophosphate]
- 125I-Insulin specific binding (%), WGA-purified endosomes (insulin receptor): 97.8 ± 2.3%

- 125I-Insulin specific binding (%), Solubilized endosomes (insulin receptor): 112.2 ± 2.8%
- 125I-Insulin specific binding (%), WGA-purified endosomes (insulin receptor): 99.1 ± 1.0%
SMILES: Nc1ncnc2c1ncn2[C@@H]1O[C@H](COP(=O)(O)OP(=O)(O)NP(=O)(O)O)[C@@H](O)[C@H]1O [AMP—P—N—P]

- 125I-Insulin specific binding (%), Solubilized endosomes (insulin receptor): 96.3 ± 6.4%
- 125I-Insulin specific binding (%), WGA-purified endosomes (insulin receptor): 82.7 ± 5.2%
SMILES: Nc1ncnc2c1ncn2[C@@H]1O[C@H](COP(=O)(O)OP(=O)(O)O)[C@@H](O)[C@H]1O [ADP]
